Results from ChEMBL document CHEMBL1857833, “Screening and optimization of specific chemical series against human African Trypanosomiasis (HAT)”.
Values after ≈ are worked out from the molar mass of the structure shown. Values joined by “and” are separate entries in the source; they are usually repeats but may differ in a detail not shown here. Identical values can stand only once.

Assays:
[1] = DNDI: Cytotoxicity against L929 mouse fibroblasts, 72 hour.; type: toxicity, cell-based; conditions: mouse, L929 mouse fibroblasts
Trypanosoma brucei [2] = assay: (§1) DNDI: Mean survival time in days (MSD) of mice after intraperitoneal injection of Human African Trypanosomiasis (HAT), EATRO 110, in vivo at 20 mg/kg/day for 4 days.; type: functional, Mus musculus
[3] = mouse, microsomes, 1 µM
Description: DNDI: in vitro intrinsic clearance in mouse liver microsomes at a concentration of 1uM

Trypanosoma brucei [4] = assay: DNDI: Inhibition of Human African Trypanosomiasis, SBRI 427, in vitro; type: functional, organism-based
Trypanosoma brucei [5] = assay: as §1; type: functional, Mus musculus; remark: listed apart in the source
in vitro = conditions: mouse, liver microsomes, t (1 / 2)
Description: DNDI: half life in mouse liver microsomes at a concentration of 1uM

[6] = DNDI: Lipophilicity measured in Chromatographic hydrophobicity index (CHI) assay, pH 7.4; type: physicochemical; conditions: buffer
[7] = DNDI: Cytotoxicity against L929 mouse fibroblasts, CYTO-SP, 24 hour; type: toxicity, cell-based; conditions: mouse, L929 mouse fibroblasts
[8] = DNDI: Solubility in phosphate buffered saline at pH7.4 measured by nephelometry at room temperature (NEPH-RT); type: physicochemical; conditions: pH 7.4
[9] = DNDI: % of compound remaining in rat S9 microsomes at a concentration of 1uM; type: ADME, subcellular, Liver, S9 fraction
[10] = DNDI: % of compound remaining in mouse S9 microsomes at a concentration of 1uM after 60 mins; type: ADME, subcellular, Liver, S9 fraction
[11] = DNDI: half-life in mouse S9 microsomes at a concentration of 1uM; type: ADME, subcellular, Liver, S9 fraction
Trypanosoma brucei [12] = assay: DNDI: Inhibition of Human African Trypanosomiasis, Cross 22, in vitro; type: functional, organism-based
[13] = DNDI: Cytotoxicity against L-6 rat myoblasts from skeletal muscle cells; type: toxicity, cell-based, L6; conditions: L-6 rat skeletal muscle myoblasts
Trypanosoma cruzi = assay: DNDI: Inhibition of Chagas Disease parasite Trypanosoma cruzi (Tulahuen LacZ, Clone C4), in vitro.; type: functional, organism-based
Leishmania donovani = assay: DNDI: Inhibition of formation of Leishmania donovani (strain MHOM/ET/67/L82) axenic amastigotes, in vitro.; type: functional, organism-based
Plasmodium falciparum = assay: DNDI: Inhibition of the malaria parasite Plasmodium falciparum, in vitro; type: functional, organism-based; conditions: K1
[14] = system: Trypanosoma brucei rhodesiense; assay: DNDI: Inhibition of Human African Trypanosomiasis (HAT), STIB 900, in vitro; type: functional, organism-based
[15] = Trypanosoma brucei, SBRI 427, read-out: IC50

remaining at 1 µM [9] [%]	remaining at 1 h, 1 µM [10] [%]	half-life at 1 µM [11] [min]	SMILES	IC50 at 72 h [1] [µg/mL]	MSD (Trypanosoma brucei [2]) [days]	CLint in vitro [3] [µL/min/mg]	IC50 (Trypanosoma brucei [4]; [15]) [µg/mL]	MSD (Trypanosoma brucei [5]) [days]	half-life at 1 µM (in vitro) [min]	chromatographic logD [6]	IC50 at 24 h [7] [µg/mL]	solubility kinetic [8] [µM]	IC50 (Trypanosoma brucei [12]) [µg/mL]	IC50 (Trypanosoma brucei [4])	IC50 [13] [µg/mL]	IC50 (Trypanosoma cruzi) [µg/mL]	IC50 (Leishmania donovani) [µg/mL]	IC50 (Plasmodium falciparum) [µg/mL]	IC50 [14] [µg/mL]
			CCCCCC(C)NCc1coc(-c2ccccc2Oc2ccccc2)n1 (stereo not drawn)	6.3 (≈ 17.3 µM)	4	220	2.98 (≈ 8.18 µM)	5	4										
			CCCCCOc1ccc(-c2nc(CN[C@@H]3C[C@@H]4C[C@H]([C@H]3C)C4(C)C)co2)cc1	< 3.13		60	0.12 (≈ 0.303 µM)	4.5	14	6.5	38.9 (≈ 98.1 µM)	2 (≈ 0.793 µg/mL)							
			CC1CC(NCc2coc(-c3ccc(OC(C)C)cc3)n2)CC(C)(C)C1 (stereo not drawn)	1.51 (≈ 4.24 µM)	4	26	0.79 (≈ 2.22 µM)	3.5	33										
0.555	49.7		CCCCCOc1ccc(-c2nc(CNC(C)CCCCC)co2)cc1 (stereo not drawn)	< 3.13		13	0.33 (≈ 0.92 µM)		68		32.4 (≈ 90.4 µM)								
			CCCCCC(C)NCc1coc(-c2ccc(OC(CC)CC)cc2)n1 (stereo not drawn)	0.85 (≈ 2.37 µM)	4	2	0.36 (≈ 1 µM)	4	476			1 (≈ 0.359 µg/mL)							
0			Cc1ccc(Oc2ncccc2/C(=N/O)NC2CCCCC2)cc1	> 10		244.61	0.16 (≈ 0.492 µM)		3.48	4.32		25 (≈ 8.14 µg/mL)							
		3.5	c1ccc2c(Oc3nc(NCCN4CCCC4)nc4ccsc34)cccc2c1	> 10			1.06 (≈ 2.71 µM)												
0	59.9		CCCCCC(C)NCc1coc(-c2ccc(Oc3ccccc3)cc2)n1 (stereo not drawn)	1.6 (≈ 4.39 µM)		28	0.42 (≈ 1.15 µM)		31	4.67		6 (≈ 2.19 µg/mL)							
			CCCCCOc1ccc(-c2nc(CNC[C@@H]3CC[C@H]4C[C@@H]3C4(C)C)co2)cc1	< 3.13		74	0.08 (≈ 0.202 µM)	4	12	6.45	> 50	< 1							
			CC(C)Oc1ccc(-c2nc(CNC3CCCCCC3)co2)cc1	6.77 (≈ 20.6 µM)	4	12	2.39 (≈ 7.28 µM)	4	68										
105	112		CC1CC(NCc2coc(-c3ccc(-c4ccccc4)cc3)n2)CC(C)(C)C1 (stereo not drawn)	< 3.13		6	0.27 (≈ 0.721 µM)		154		7.93 (≈ 21.2 µM)		0.25 (≈ 0.668 µM)	0.24 µg/mL and 0.16 µg/mL					
			CCCCc1ccc(-c2nc(CNC3[C@H]4C[C@@H]5C[C@@H](C[C@H]3C5)C4)co2)cc1 (stereo partly drawn)					4			> 50		0.44 (≈ 1.21 µM)	0.77 ug/ml [middle of 4 runs]	8.8 (≈ 24.1 µM)	3.9 (≈ 10.7 µM)	9.58 (≈ 26.3 µM)	0.738 (≈ 2.02 µM)	0.727 (≈ 1.99 µM)

SMILES	remaining at 1 µM [9] [%]	remaining at 1 h, 1 µM [10] [%]	half-life at 1 µM [11] [min]	IC50 at 72 h [1] [µg/mL]	MSD (Trypanosoma brucei [2]) [days]	CLint in vitro [3] [µL/min/mg]	IC50 (Trypanosoma brucei [4]; [15]) [µg/mL]	MSD (Trypanosoma brucei [5]) [days]	half-life at 1 µM (in vitro) [min]	chromatographic logD [6]	IC50 at 24 h [7] [µg/mL]	solubility kinetic [8] [µM]	IC50 (Trypanosoma brucei [12]) [µg/mL]	IC50 (Trypanosoma brucei [4])	IC50 [13] [µg/mL]	IC50 (Trypanosoma cruzi) [µg/mL]	IC50 (Leishmania donovani) [µg/mL]	IC50 (Plasmodium falciparum) [µg/mL]	IC50 [14] [µg/mL]
CCCCc1ccc(-c2nc(CNCc3c(OC)cccc3OC)co2)cc1	0.169	18.7		1.62 (≈ 4.26 µM)	4.5	65	0.32 (≈ 0.841 µM)		13	> 5.2		6 (≈ 2.28 µg/mL)							
